Results published in patent US10526319B2, “Halogenated quinazolin-THF-amines as PDE1 inhibitors” (H. Lundbeck A/S, priority 2014, dated 2020).

What was measured:
Format in all cases: biochemical
Conditions in all cases: 15 nM tritium labelled cAMP, 1 h at room temperature
PDE1C = PDE1C (Homo sapiens, UniProt Q14123); assay: PDE1 inhibition assay (SPA, tritium labelled cAMP), PDE1C
Method: (§1) PDE1A, PDE1B and PDE1C assays were performed as follows: the assays was performed in 60 μL samples containing a fixed amount of the PDE1 enzym1 (sufficient to convert 20-25% of the cyclic nucleotide substrate), a buffer (50 mM HEPES pH 7.6; 10 mM MgCl2; 0.02% Tween20), 0.1 mg/ml BSA, 15 nM tritium labelled cAMP and varying amounts of inhibitors. Reactions were initiated by addition of the cyclic nucleotide substrate, and reactions were allowed to proceed for 1 h at room temperature before being terminated through mixing with 20 μL (0.2 mg) yttrium silicate SPA beads (PerkinElmer). The beads were allowed to settle for 1 h in the dark before the plates were counted in a Wallac 1450 Microbeta counter. The measured signals were converted to activity relative to an uninhibited control (100%) and IC50 values were calculated using XlFit (model 205, IDBS).

PDE1B = PDE1B (Homo sapiens, UniProt Q01064); assay: PDE1 inhibition assay (SPA, tritium labelled cAMP), PDE1B
Method: as §1

PDE1A = PDE1A (Homo sapiens, UniProt P54750); assay: PDE1 inhibition assay (SPA, tritium labelled cAMP), PDE1A
Method: as §1

Chain of PDE1C (Q14123 whole entry): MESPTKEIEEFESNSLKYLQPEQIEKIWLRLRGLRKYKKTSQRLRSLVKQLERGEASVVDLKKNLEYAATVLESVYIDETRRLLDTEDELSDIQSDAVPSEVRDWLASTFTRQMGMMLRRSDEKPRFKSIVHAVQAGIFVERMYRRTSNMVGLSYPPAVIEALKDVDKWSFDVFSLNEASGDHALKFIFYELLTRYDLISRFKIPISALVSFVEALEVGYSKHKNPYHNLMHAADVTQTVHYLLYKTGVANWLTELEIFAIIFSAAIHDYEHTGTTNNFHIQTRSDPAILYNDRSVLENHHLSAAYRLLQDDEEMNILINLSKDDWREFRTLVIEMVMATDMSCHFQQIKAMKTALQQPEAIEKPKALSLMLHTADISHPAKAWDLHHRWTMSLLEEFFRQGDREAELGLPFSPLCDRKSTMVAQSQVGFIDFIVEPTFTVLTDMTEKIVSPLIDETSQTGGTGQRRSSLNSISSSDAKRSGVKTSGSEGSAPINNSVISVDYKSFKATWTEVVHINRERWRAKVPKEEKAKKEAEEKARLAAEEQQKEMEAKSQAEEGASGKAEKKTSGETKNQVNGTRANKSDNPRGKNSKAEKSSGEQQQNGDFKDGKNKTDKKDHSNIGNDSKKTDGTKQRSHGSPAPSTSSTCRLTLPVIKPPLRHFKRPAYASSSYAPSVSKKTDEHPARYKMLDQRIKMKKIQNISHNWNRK
Chain of PDE1A (P54750 whole entry): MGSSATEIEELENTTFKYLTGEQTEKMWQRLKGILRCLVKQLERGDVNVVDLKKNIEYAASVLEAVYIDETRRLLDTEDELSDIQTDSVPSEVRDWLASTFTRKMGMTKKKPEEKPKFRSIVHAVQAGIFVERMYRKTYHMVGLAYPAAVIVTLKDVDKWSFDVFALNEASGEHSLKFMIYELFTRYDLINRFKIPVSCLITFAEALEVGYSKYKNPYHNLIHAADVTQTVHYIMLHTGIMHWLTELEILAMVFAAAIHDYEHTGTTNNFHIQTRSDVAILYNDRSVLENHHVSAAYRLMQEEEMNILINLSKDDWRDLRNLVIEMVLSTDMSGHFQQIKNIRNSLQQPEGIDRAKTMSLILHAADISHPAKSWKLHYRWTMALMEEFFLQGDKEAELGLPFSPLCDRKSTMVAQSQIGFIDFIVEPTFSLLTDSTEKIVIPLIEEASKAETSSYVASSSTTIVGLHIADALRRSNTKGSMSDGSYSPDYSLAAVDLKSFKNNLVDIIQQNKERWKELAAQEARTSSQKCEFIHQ
Chain of PDE1B (Q01064 whole entry): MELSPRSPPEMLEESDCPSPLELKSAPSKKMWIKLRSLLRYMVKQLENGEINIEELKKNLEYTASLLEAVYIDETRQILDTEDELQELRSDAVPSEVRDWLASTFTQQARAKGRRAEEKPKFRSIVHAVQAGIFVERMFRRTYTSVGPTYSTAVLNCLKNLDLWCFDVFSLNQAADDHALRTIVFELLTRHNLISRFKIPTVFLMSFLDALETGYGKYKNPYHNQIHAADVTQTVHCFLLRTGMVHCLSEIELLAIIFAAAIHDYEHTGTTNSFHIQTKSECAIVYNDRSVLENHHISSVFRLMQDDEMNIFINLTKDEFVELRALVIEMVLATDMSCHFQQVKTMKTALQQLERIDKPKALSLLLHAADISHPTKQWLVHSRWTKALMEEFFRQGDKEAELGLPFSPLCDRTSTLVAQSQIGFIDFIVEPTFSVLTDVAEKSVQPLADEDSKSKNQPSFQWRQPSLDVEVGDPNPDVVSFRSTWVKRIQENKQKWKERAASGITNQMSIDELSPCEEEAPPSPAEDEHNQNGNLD

IC50 (PDE1C) [µM] | IC50 (PDE1B) [µM] | IC50 (PDE1A) [µM] | SMILES
0.41 | 0.12 | 0.6 | COc1ccc2c(NC3CCOC3C)ncnc2c1F (single isomer, unassigned) [3 Stereoisomer 4]
0.2 | 0.49 | 1.53 | COc1ccc2c(N(C)C3CCOC3C)ncnc2c1Cl (single isomer, unassigned) [14 Stereoisomer 3]
0.011 | 0.023 | 0.2 | COc1ccc2c(NC3(C)CCOC3)ncnc2c1Cl (single isomer, unassigned) [7 stereoisomer 1]
1.3 | 0.3 | 1.1 | COc1ccc2c(N(C)C3CCOC3)ncnc2c1F (single isomer, unassigned) [2 Stereoisomer 1]
0.013 | 0.026 | 0.3 | COc1ccc2c(N(C)C3(C)CCOC3C)ncnc2c1Cl (single isomer, unassigned) [13 Stereoisomer 4]
0.011 | 0.015 | 0.15 | COc1ccc2c(N(C)C3CCOC3)ncnc2c1Cl (single isomer, unassigned) [6 stereoisomer 2]
0.014 | 0.021 | 0.145 | COc1ccc2c(NC3(C)CCOC3C)ncnc2c1Cl (single isomer, unassigned) [12 Stereoisomer 3]
0.015 | 0.031 | 0.152 | COc1ccc2c(N(C)C3(C)CCOC3)ncnc2c1Cl (single isomer, unassigned) [11 Stereoisomer 2]
0.005 | 0.007 | 0.085 | COc1ccc2c(N(C)C3(C)CCOC3C)ncnc2c1Cl (single isomer, unassigned) [13 Stereoisomer 3]
0.13 | 0.2 | 0.853 | COc1ccc2c(NC3(C)CCOC3C)ncnc2c1Cl (single isomer, unassigned) [12 Stereoisomer 1]
2.5 | 2.2 | 4.03 | COc1ccc2c(N3CC[C@@H]4OCCC43)ncnc2c1F (single isomer, unassigned) [8 Stereoisomer 2]
0.055 | 0.032 | 0.185 | COc1ccc2c(N(C)C3(C)CCOC3C)ncnc2c1F (single isomer, unassigned) [19 Stereoisomer 2]
0.004 | 0.007 | 0.076 | COc1ccc2c(NC3(C)CCOC3C)ncnc2c1Cl (single isomer, unassigned) [12 Stereoisomer 4]
0.31 | 0.07 | 0.53 | COc1ccc2c(NC3CCOC3C)ncnc2c1F (single isomer, unassigned) [3 Stereoisomer 3]
0.035 | 0.037 | 0.23 | COc1ccc2c(NC3CCOC3C)ncnc2c1Cl (single isomer, unassigned) [5 stereoisomer 2]
0.2 | 0.51 | 2.64 | COc1ccc2c(N(C)C3CCOC3C)ncnc2c1Cl (single isomer, unassigned) [14 Stereoisomer 1]
